Measurements reported in ChEMBL document CHEMBL1130731, “Methyloxime-substituted aminopyrrolidine: a new surrogate for 7-basic group of quinolone” (Bioorg Med Chem Lett, 1998).
Converted amounts (≈) assume the structure as drawn.

Legend:
Salmonella typhimurium = experiment: In vitro antimicrobial activity against Salmonella Typhimurium 14028; assay type: functional, Salmonella enterica subsp. enterica serovar Typhimurium; conditions: Salmonella enterica
Escherichia coli [1] = experiment: In vitro antimicrobial activity against Escherichia coli 3190Y; assay type: functional
[2] = tested on: Staphylococcus epidermidis; experiment: In vitro antimicrobial activity against Staphylococcus epidermis 887E; assay type: functional
Escherichia coli [3] = experiment: In vitro antimicrobial activity against Escherichia coli 10536
Citrobacter koseri = experiment: In vitro antimicrobial activity against Citrobacter diversus 2046E; assay type: functional
Staphylococcus aureus [4] = experiment: In vitro antimicrobial activity against Staphylococcus aureus giorgio; assay type: functional
Escherichia coli [5] = experiment: In vitro antimicrobial activity against Escherichia coli TEM5 3739E; assay type: functional
[6] = tested on: Acinetobacter calcoaceticus; experiment: In vitro antimicrobial activity against Acinetobacter calcoaceticus 15473; assay type: functional
Micrococcus luteus = experiment: In vitro antimicrobial activity against Micrococcus luteus ATCC 9341; assay type: functional
Enterobacter cloacae = experiment: In vitro antimicrobial activity against Enterobacter cloacae p99; assay type: functional
Pseudomonas aeruginosa = experiment: In vitro antimicrobial activity against Pseudomonas aeruginosa 1012E; assay type: functional
[7] = tested on: Staphylococcus epidermidis; experiment: In vitro antimicrobial activity against Staphylococcus epidermis 178; assay type: functional
Staphylococcus aureus [8] = experiment: In vitro antimicrobial activity against Staphylococcus aureus 241; assay type: functional
Escherichia coli [9] = experiment: In vitro antimicrobial activity against Escherichia coli 851E; assay type: functional
Bacillus subtilis = experiment: In vitro antimicrobial activity against Bacillus subtilis ATCC 6633; assay type: functional
Staphylococcus aureus [10] = experiment: In vitro antimicrobial activity against Staphylococcus aureus 77; assay type: functional
Klebsiella aerogenes = experiment: In vitro antimicrobial activity against Klebsiella aerogenes 1076E; assay type: functional
Escherichia coli [11] = experiment: In vitro antimicrobial activity against Escherichia coli 10536; assay type: functional
Mus musculus [12] = experiment: In vivo efficacy against systemic infection of Staphylococcus aureus giorgio in mouse; assay type: functional
[13] = Cmax value after administration of 20 mg/Kg oral dose in rat; assay type: ADME, organism-based; set-up: dose 20 mg/Kg, route oral; conditions: in vivo
[14] = Half-life after administration of 4 mg/Kg oral dose in dog; conditions: in vivo
[15] = Tmax value after administration of 4 mg/Kg oral dose in dog; assay type: ADME, organism-based, Canis lupus familiaris; conditions: in vivo
in vivo [16] = conditions: dog, po, 4 mg/kg
[17] = Half-life after administration of 20 mg/Kg oral dose in rat; assay type: ADME, organism-based; conditions: in vivo
[18] = Bioavailability in dog (dose 4 mg/kg p.o.); assay type: ADME, organism-based, Canis lupus familiaris; conditions: in vivo, po
in vivo [19] = conditions: dog, po, 4 mg/kg; remark: listed apart in the source
[20] = AUC value after administration of 20 mg/Kg oral dose in rat; assay type: ADME, organism-based; conditions: plasma
[21] = Tmax value after administration of 20 mg/Kg oral dose in rat; assay type: ADME, organism-based; conditions: in vivo
Mus musculus [22] = experiment: In vivo efficacy against systemic infection of Pseudomonas aeruginosa 1912E in mouse; assay type: functional
[23] = Bioavailability in rat (dose 20 mg/kg p.o.); assay type: ADME, organism-based; conditions: in vivo, po

Compound | MIC (Salmonella typhimurium) [µg/mL] | MIC (Escherichia coli [1]) [µg/mL] | MIC [2] [µg/mL] | MIC (Citrobacter koseri) [µg/mL] | MIC (Staphylococcus aureus [4]) [µg/mL] | MIC (Escherichia coli [5]) [µg/mL] | MIC [6] [µg/mL] | MIC (Micrococcus luteus) [µg/mL] | MIC (Enterobacter cloacae) [µg/mL] | MIC (Pseudomonas aeruginosa) [µg/mL] | MIC [7] [µg/mL] | MIC (Staphylococcus aureus [8]) [µg/mL] | MIC (Escherichia coli [9]) [µg/mL] | MIC (Bacillus subtilis) [µg/mL] | MIC (Staphylococcus aureus [10]) [µg/mL] | MIC (Klebsiella aerogenes) [µg/mL] | MIC (Escherichia coli [11]) [µg/mL] | further results
CO/N=C1/CN(c2c(F)cc3c(=O)c(C(=O)O)cn(C4CC4)c3c2Cl)CC1N (stereo not drawn) | 0.13 (≈ 0.318 µM) | ≤ 0.008 | 0.016 (≈ 0.0391 µM) | 0.063 (≈ 0.154 µM) | 0.016 (≈ 0.0391 µM) | 0.25 (≈ 0.612 µM) | 0.031 (≈ 0.0758 µM) | 0.13 (≈ 0.318 µM) | 0.016 (≈ 0.0391 µM) | 2 (≈ 4.89 µM) | 0.5 (≈ 1.22 µM) | 0.5 (≈ 1.22 µM) | 0.031 (≈ 0.0758 µM) | ≤ 0.008 | 0.016 (≈ 0.0391 µM) | 0.25 (≈ 0.612 µM) | – | MIC (Escherichia coli [3]): 0.016 µg/mL (≈ 0.0391 µM)
CO/N=C1\CN(c2c(F)c(N)c3c(=O)c(C(=O)O)cn(C4CC4)c3c2F)CC1N (stereo not drawn) | 0.063 (≈ 0.155 µM) | ≤ 0.008 | 0.016 (≈ 0.0393 µM) | 0.063 (≈ 0.155 µM) | ≤ 0.008 | 0.13 (≈ 0.319 µM) | 0.031 (≈ 0.0761 µM) | 0.5 (≈ 1.23 µM) | ≤ 0.008 | 1 (≈ 2.45 µM) | 2 (≈ 4.91 µM) | 2 (≈ 4.91 µM) | 0.031 (≈ 0.0761 µM) | ≤ 0.008 | 0.031 (≈ 0.0761 µM) | 0.25 (≈ 0.614 µM) | ≤ 0.008 | –
CO/N=C1\CN(c2nc3c(cc2F)c(=O)c(C(=O)O)cn3C2CC2)CC1N (stereo not drawn) | 0.13 (≈ 0.346 µM) | ≤ 0.008 | 0.063 (≈ 0.168 µM) | 0.063 (≈ 0.168 µM) | 0.063 (≈ 0.168 µM) | 1 (≈ 2.66 µM) | 0.063 (≈ 0.168 µM) | 1 (≈ 2.66 µM) | 0.016 (≈ 0.0426 µM) | 2 (≈ 5.33 µM) | 8 (≈ 21.3 µM) | 8 (≈ 21.3 µM) | 0.063 (≈ 0.168 µM) | ≤ 0.008 | 0.063 (≈ 0.168 µM) | 0.25 (≈ 0.666 µM) | ≤ 0.008 | –
CNC1CN(c2nc3c(cc2F)c(=O)c(C(=O)O)cn3C2CC2)C/C1=N\OC (stereo not drawn) | 0.25 (≈ 0.642 µM) | ≤ 0.008 | 0.063 (≈ 0.162 µM) | 0.13 (≈ 0.334 µM) | 0.031 (≈ 0.0796 µM) | 1 (≈ 2.57 µM) | 0.13 (≈ 0.334 µM) | 2 (≈ 5.14 µM) | ≤ 0.008 | 4 (≈ 10.3 µM) | 32 (≈ 82.2 µM) | 16 (≈ 41.1 µM) | 0.063 (≈ 0.162 µM) | ≤ 0.008 | 0.063 (≈ 0.162 µM) | 0.5 (≈ 1.28 µM) | ≤ 0.008 | –
NC1CN(c2c(F)cc3c(=O)c(C(=O)O)cn(C4CC4)c3c2F)C/C1=N\OCCF (stereo not drawn) | 0.13 (≈ 0.306 µM) | 0.016 (≈ 0.0377 µM) | 0.063 (≈ 0.148 µM) | 0.13 (≈ 0.306 µM) | 0.031 (≈ 0.073 µM) | 0.25 (≈ 0.589 µM) | 0.13 (≈ 0.306 µM) | 0.25 (≈ 0.589 µM) | 0.016 (≈ 0.0377 µM) | 2 (≈ 4.71 µM) | 2 (≈ 4.71 µM) | 2 (≈ 4.71 µM) | 0.031 (≈ 0.073 µM) | 0.016 (≈ 0.0377 µM) | 0.063 (≈ 0.148 µM) | 0.25 (≈ 0.589 µM) | 0.031 (≈ 0.073 µM) | –
O=C(O)c1cn(C2CC2)c2cc(N3CCNCC3)c(F)cc2c1=O [CIPROFLOXACIN] | 0.031 (≈ 0.0936 µM) | ≤ 0.008 | 0.13 (≈ 0.392 µM) | 0.016 (≈ 0.0483 µM) | 0.25 (≈ 0.754 µM) | 0.13 (≈ 0.392 µM) | 0.25 (≈ 0.754 µM) | 4 (≈ 12.1 µM) | – | 0.13 (≈ 0.392 µM) | 128 (≈ 386 µM) | 128 (≈ 386 µM) | – | 0.031 (≈ 0.0936 µM) | 0.25 (≈ 0.754 µM) | 0.13 (≈ 0.392 µM) | ≤ 0.008 | ED50 (Mus musculus [12]): 7.46 mg/kg; Cmax [13]: 900 ng/mL; Tmax [15]: 67.2 min; AUC (in vivo [16]; in vivo): 4540 ng·h/mL; Cmax (in vivo [19]): 910 ng/mL; AUC [20]: 2590 ng·h/mL; Tmax [21]: 6.6 min; ED50 (Mus musculus [22]): 3.11 mg/kg

More lines, in order of falling MIC (Salmonella typhimurium), values ahead:

MIC (Salmonella typhimurium) [µg/mL] | MIC (Escherichia coli [1]) [µg/mL] | MIC [2] [µg/mL] | MIC (Citrobacter koseri) [µg/mL] | MIC (Staphylococcus aureus [4]) [µg/mL] | MIC (Escherichia coli [5]) [µg/mL] | MIC [6] [µg/mL] | MIC (Micrococcus luteus) [µg/mL] | MIC (Enterobacter cloacae) [µg/mL] | MIC (Pseudomonas aeruginosa) [µg/mL] | MIC [7] [µg/mL] | MIC (Staphylococcus aureus [8]) [µg/mL] | MIC (Escherichia coli [9]) [µg/mL] | MIC (Bacillus subtilis) [µg/mL] | MIC (Staphylococcus aureus [10]) [µg/mL] | MIC (Klebsiella aerogenes) [µg/mL] | MIC (Escherichia coli [11]) [µg/mL] | Compound | further results
0.63 (≈ 1.67 µM) | ≤ 0.008 | 0.13 (≈ 0.344 µM) | 0.13 (≈ 0.344 µM) | 0.063 (≈ 0.167 µM) | 0.5 (≈ 1.32 µM) | 0.5 (≈ 1.32 µM) | 0.25 (≈ 0.661 µM) | 0.031 (≈ 0.0819 µM) | 1 (≈ 2.64 µM) | 64 (≈ 169 µM) | 32 (≈ 84.6 µM) | 0.031 (≈ 0.0819 µM) | 0.063 (≈ 0.167 µM) | 0.063 (≈ 0.167 µM) | 0.5 (≈ 1.32 µM) | 0.016 (≈ 0.0423 µM) | NC1CN(c2c(F)cc3c(=O)c(C(=O)O)cn(C4CC4)c3c2F)C/C1=N\O (stereo not drawn) | –
0.25 (≈ 0.598 µM) | ≤ 0.008 | 0.016 (≈ 0.0382 µM) | 0.13 (≈ 0.311 µM) | 0.016 (≈ 0.0382 µM) | 0.5 (≈ 1.2 µM) | 0.031 (≈ 0.0741 µM) | 0.25 (≈ 0.598 µM) | 0.031 (≈ 0.0741 µM) | 2 (≈ 4.78 µM) | 2 (≈ 4.78 µM) | 2 (≈ 4.78 µM) | 0.063 (≈ 0.151 µM) | ≤ 0.008 | 0.031 (≈ 0.0741 µM) | 0.25 (≈ 0.598 µM) | 0.031 (≈ 0.0741 µM) | C=CCO/N=C1\CN(c2c(F)cc3c(=O)c(C(=O)O)cn(C4CC4)c3c2F)CC1N (stereo not drawn) | –
0.13 (≈ 0.347 µM) | ≤ 0.008 | 0.031 (≈ 0.0828 µM) | 0.031 (≈ 0.0828 µM) | 0.016 (≈ 0.0427 µM) | 0.5 (≈ 1.34 µM) | 0.031 (≈ 0.0828 µM) | 0.25 (≈ 0.668 µM) | ≤ 0.008 | 1 (≈ 2.67 µM) | 16 (≈ 42.7 µM) | 32 (≈ 85.5 µM) | 0.031 (≈ 0.0828 µM) | ≤ 0.008 | 0.031 (≈ 0.0828 µM) | 0.25 (≈ 0.668 µM) | 0.016 (≈ 0.0427 µM) | CO/N=C1/CN(c2cc3c(cc2F)c(=O)c(C(=O)O)cn3C2CC2)CC1N (stereo not drawn) | –
0.063 (≈ 0.161 µM) | ≤ 0.008 | 0.016 (≈ 0.0408 µM) | 0.063 (≈ 0.161 µM) | ≤ 0.008 | 0.25 (≈ 0.637 µM) | 0.016 (≈ 0.0408 µM) | 0.13 (≈ 0.331 µM) | ≤ 0.008 | 1 (≈ 2.55 µM) | 2 (≈ 5.1 µM) | 2 (≈ 5.1 µM) | 0.031 (≈ 0.079 µM) | ≤ 0.008 | 0.016 (≈ 0.0408 µM) | 0.13 (≈ 0.331 µM) | ≤ 0.008 | CO/N=C1\CN(c2c(F)cc3c(=O)c(C(=O)O)cn(C4CC4)c3c2F)CC1N (stereo not drawn) | ED50 (Mus musculus [12]): 0.87 mg/kg; Cmax [13]: 22800 ng/mL; half-life [14]: 140 min; Tmax [15]: 13.8 min; AUC (in vivo [16]; plasma): 12900 ng·h/mL; half-life [17]: 311 min; bioavailability [18]: > 100%; Cmax (in vivo [19]): 3440 ng/mL; AUC [20]: 179000 ng·h/mL; Tmax [21]: 10.8 min; ED50 (Mus musculus [22]): 9.69 mg/kg; bioavailability [23]: > 100%
